What was measured:
[1] = Percutaneous penetration study, Franz diffusion apparatus, human skin (*); format: in vitro ADME; details: Example 8; for reduction of penetration on addition of the proscribed compound, in words: compared with octanoic acid (reduces penetration by 50%)
Method: The following Penetration Studies were carried out in the following manner. […] A normal saline solution is added to the lower diffusion cell, abutting the subcutaneous side of the skin. The test composition (comprising a solution of active or actives added to the carrier at the indicated formulation in a conventional manner by thoroughly mixing) is added to the diffusion cell abutting the epidermal side of the skin at the levels indicated.
This cell assembly is kept at a constant temperature of about 31° C. At appropriate or desired intervals (these are the time designations given in the following examples) each diffusion cell assembly is opened and the diffusate from the cell abutting the subcutaneous side of the skin is withdrawn. Drug actives in a diffusate is measured using standard analytical techniques. Each trial is run on a separate sample of skin.
All ratios represented by A/B, or A/B/C, and all percentages, are by weight. The compounds described as C12-18 OH are the straight chain, saturated, normal alcohols. EtOH is ethanol. The term mcg=microgram.

[2] = tested on: dermatitis; assay: Topical treatment of dermatitis in a human, composition of Example 32; format: in vivo; details: 5 mg/cm^2 of skin three times daily for five days; noted after 48 hours
Method: The above composition is applied at the afflicted situs of a human afflicted with dermatitis at a rate of 5 mg of composition/cm^2 of skin three times daily for a period of five days.

[3] = compared with hydrocortisone; cited from earlier work

reduction of penetration on addition of the proscribed compound, in words [1]	SMILES	reduction of inflammation [2]	further results
Substantially similar results	CCCCCCCCCC(=O)O [decanoic acid]	–	–
–	CC1(C)O[C@@H]2C[C@H]3[C@@H]4CCC5=CC(=O)C=C[C@]5(C)[C@@]4(F)[C@@H](O)C[C@]3(C)[C@]2(C(=O)CO)O1 [triamcinolone, Triamcinolone acetonide]	Substantially similar results	–
–	CC1(C)O[C@@H]2C[C@H]3[C@@H]4C[C@H](F)C5=CC(=O)C=C[C@]5(C)[C@@]4(F)[C@@H](O)C[C@]3(C)[C@]2(C(=O)CO)O1 [fluocinolone, acetonide, Fluocinolone acetonide]	Substantially similar results	–
–	CCCCC(=O)O[C@]1(C(=O)CO)[C@@H](C)C[C@H]2[C@@H]3CCC4=CC(=O)C=C[C@]4(C)[C@@]3(F)[C@@H](O)C[C@@]21C [betamethasone valerate]	Substantially similar results	–
Substantially similar results	CCCCCCCCCCCCCCCCO [cetyl alcohol]	–	–
–	COc1c(C(=O)OCC(=O)[C@@]23OC(C)(C)O[C@@H]2C[C@H]2[C@@H]4CCC5=CC(=O)C=C[C@]5(C)[C@@]4(F)[C@@H](O)C[C@@]23C)cc2ccccc2c1Cc1c(OC)c(C(=O)OCC(=O)[C@@]23OC(C)(C)O[C@@H]2C[C@H]2[C@@H]4CCC5=CC(=O)C=C[C@]5(C)[C@@]4(F)[C@@H](O)C[C@@]23C)cc2ccccc12 [flupamesone]	Substantially similar results	–
–	CCCCCCCC(=O)O [octanoic acid]	–	reduction of penetration on addition of the proscribed compound ([1]; 1% Triamcinolone in Propylene Glycol + 2% C14 OH, human skin, 0-72 hrs.): 50%
–	C[C@]12C=CC(=O)C=C1CC[C@@H]1[C@@H]2[C@@H](O)C[C@@]2(C)[C@H]1CC[C@]2(O)C(=O)CO [prednisolone]	–	change of mineralocorticoid effects by introduction of a double bond at the 1,2 position into hydrocortisone [3]: reducing mineralo corticoid effects

SMILES	reduction of penetration on addition of the proscribed compound, in words [1]	reduction of inflammation [2]	further results
CCCCCCCCCCCCCCCCCCO [stearyl alcohol]	Substantially similar results	–	–

Reference: patent publication US4552872A, “Penetrating topical pharmaceutical compositions containing corticosteroids” (priority 1984, dated 1985)
